System: mouse long-term hematopoietic stem cells
Test: Combination test with UM171 on mouse long-term hematopoietic stem cells
Type: cell-based
Details: for KLS-positive rate / Viable cell count / mCherry-positive rate: n=2
Procedure: The cells after classification were seeded in a 96-well plate. A cell culture medium was prepared by adding Stem Cell Factor (SCF, manufactured by PeproTech, Inc.) and Thrombopoietin (TPO, manufactured by PeproTech, Inc.) to StemSpan SFEM culture medium (manufactured by […] Technologies Inc.) and added in advance to a cell culture 96-well plate (manufactured by BD Biosciences) at 100 μL/well, and the cells sorted with the FACS Aria II cell sorter (BD Biosciences) were then seeded at 10 cells/well.
The test compounds each in the form of 10 mM DMSO solution were diluted with the cell culture medium to a final concentration of 1 μM, and added to the cells seeded after classification through medium exchange to a final volume of 200 μL/well. Thereafter, the cells were cultured in a CO2 incubator under conditions of 37° C. and 5% CO2 for 1 week.
After culture, the cells were stained with the antibodies for the surface markers c-Kit and Sca-1, Ter-119, B220, CD3, CD4, CD8a, Gr-1, and CD11b, and the ratio and post-growth cell count of a KLS fraction (c-Kit^+, Lin^−, Sca-1^+) or an mCherry-positive fraction given with use of a FACS Aria II cell sorter were analyzed by using FlowJo (BD Biosciences). The mCherry-positive fraction is a cell fraction expressing the Hoxb5 gene, and the KLS fraction is a cell fraction being c-Kit-positive, Lin-negative, and Sca-1-positive, and includes hematopoietic stem cells and multipotent progenitor cells as main components.
A DMSO solution of artemether was adjusted with the cell culture medium to three final concentrations (0.1 μM, 1 μM, 10 μM), and a DMSO solution of UM171 was adjusted with the cell culture medium to four final concentrations (0.1 μM, 0.3 μM, 1 μM, 3 μM), and cell culture was performed at n=2 by the same method as in Example 1. The cell culture and evaluation criteria were the same as those in Example 2.

[1] = UM171 0.1 μM alone (DMSO, no artemether)
[2] = UM171 0.3 μM alone (DMSO, no artemether)
[3] = UM171 1 μM alone (DMSO, no artemether)
[4] = UM171 3 μM alone (DMSO, no artemether)

Cn1nnc(-c2ccc3c(c2)[nH]c2nc(Cc4ccccc4)nc(N[C@H]4CC[C@H](N)CC4)c23)n1 [UM171, (1r,4r)-N1-(2-benzyl-7-(2-methyl-2H-tetrazol-5-yl)-9H-pyrimido[4,5-b]indol-4-yl)cyclohexane-1,4-diamine]
KLS-positive rate [1]: 41.0%
Viable cell count [1]: 508.0 cell
mCherry-positive rate [1]: 4.7%
KLS-positive rate [2]: 71.6%
Viable cell count [2]: 281.0 cell
mCherry-positive rate [2]: 17.1%
KLS-positive rate [3]: 98.0%
Viable cell count [3]: 24.5 cell
mCherry-positive rate [3]: 38.9%
KLS-positive rate [4]: 82.2%
Viable cell count [4]: 82.5 cell
mCherry-positive rate [4]: 16.2%
Effect of culture with artemether and UM171 together on mCherry-positive and KLS-positive cell ratios (compared with any one of the substances alone): combinational effect
